Results reported in US9375004B2 (Bayer Intellectual Property GmbH, priority 2010, dated 2016).
“And” between values parts separate entries of the source, which are not always exact repeats. Equal entries are not always repeated. Where two headings read alike, the source gives them in different places.

Legend:
[1] = test system: Botrytis cinerea; assay: Botrytis test (beans)/preventive; details: 100 ppm, preventive, lesion size 2 days after inoculation
Protocol: Botrytis Test (Beans)/Preventive
(§1) Solvent: 24.5 parts by weight of acetone • 24.5 parts by weight of N,N-dimethylformamide
(§2) Emulsifier: 1 part by weight of alkylaryl polyglycol ether
After the spray coating has dried on, 2 small pieces of agar covered with growth of Botrytis cinerea are placed on each leaf. The inoculated plants are placed in a darkened chamber at 20° C. and a relative atmospheric humidity of 100%.
2 days after the inoculation, the size of the lesions on the leaves is evaluated.

[2] = test system: Septoria tritici; assay: Septoria tritici-test (wheat)/preventive; type: in vivo; details: 500 ppm, preventive, evaluated 21 days after inoculation
[3] = test system: Pyricularia oryzae; type: in vivo
[4] = test system: Alternaria solani; assay: Alternaria test (tomato)/preventive; type: in vivo; details: 500 ppm, preventive, evaluated 7 days after inoculation
[5] = test system: Uromyces appendiculatus; details: 100 ppm, beans, preventive, evaluated 10 days after inoculation
[6] = test system: Fusarium nivale (var. majus); assay: Fusarium nivale (var. majus)-test (wheat)/preventive; details: preventive, evaluated 5 days after inoculation
[7] = test system: Pyrenophora teres; assay: Pyrenophora teres-test (barley)/preventive; type: in vivo; details: 500 ppm, preventive, evaluated 8 days after inoculation
[8] = test system: Phakopsora pachyrhizi; assay: Phakopsora test (soybeans)/protective; type: in vivo; details: 250 ppm, protective, evaluated 11 days after inoculation
[9] = test system: Puccinia triticina; assay: Puccinia triticina-test (wheat)/preventive; type: in vivo; details: 500 ppm, preventive, evaluated 8 days after inoculation
[10] = test system: Cochliobolus miyabeanus; assay: Cochliobolus test (rice)/protective; type: in vivo; details: 250 ppm, protective, evaluated 4 days after inoculation
[11] = logP by HPLC on reversed-phase column (EEC Directive 79/831 Annex V.A8); details: HPLC on reversed-phase column (C 18), EEC Directive 79/831 Annex V.A8
[12] = test system: Sphaerotheca fuliginea; assay: Sphaerotheca test (cucumber)/preventive; type: in vivo; details: 500 ppm, preventive, evaluated 7 days after inoculation
[13] = test system: Venturia inaequalis; assay: Venturia test (apples)/preventive; details: 100 ppm, preventive, evaluated 10 days after inoculation
Protocol: Venturia Test (Apples)/Preventive
as §1, §2
After the spray coating has dried on, the plants are inoculated with an aqueous conidia suspension of the causal agent of apple scab (Venturia inaequalis) and then remain for 1 day in an incubation cabinet at approximately 20° C. and a relative atmospheric humidity of 100%.
The plants are then placed in a greenhouse at approximately 21° C. and a relative atmospheric humidity of approximately 90%.
The test is evaluated 10 days after the inoculation.

[14] = test system: Rhizoctonia solani; assay: Rhizoctonia test (rice)/protective; type: in vivo; details: 250 ppm, protective, evaluated 4 days after inoculation
Protocol: Rhizoctonia Test (Rice)/Protective
Solvent: 28.5 parts by weight of acetone
Emulsifier: 1.5 part by weight of alkylaryl polyglycol ether
1 day after the treatment, the plants are inoculated with hyphae of Rhizoctonia solani.
Evaluation is carried out 4 days after the inoculation.

[15] = physchem

| SMILES | Efficacy [1] [%] | Efficacy [2] [%] | Efficacy ([3]; in vivo) | Efficacy [4] [%] | Efficacy [5] [%] | Efficacy ([6]; 500 ppm) [%] | Efficacy [7] [%] | Efficacy [8] [%] | Efficacy [9] [%] | Efficacy [10] [%] | logP [11] | Efficacy [12] [%] | Efficacy [13] [%] | Efficacy [14] [%] | Efficacy ([3]; 250 ppm, rice, protective, evaluated 5 days after inoculation) [%] | chromatographic logP ([15]; logP (acidic), HPLC, 0.1% aqueous formic acid/acetonitrile) | chromatographic logP ([15]; logP, HPLC on reversed-phase column (C 18), EEC Directive 79/831 Annex V.A8) | Efficacy ([6]; 250 ppm) [%] | protection ([3]; in vivo) |
| --- | --- | --- | --- | --- | --- | --- | --- | --- | --- | --- | --- | --- | --- | --- | --- | --- | --- | --- | --- |
| Cn1nc(C(F)F)c(C(=O)Nc2ccccc2CCC(C)(C)C)c1F [Example 13] | 94 | 100 | 97% | 100 | 100 | 100 | 100 | 98 | 100 | 85 | 3.83 | 100 | 100 | 100 | – | – | – | – | – |
| Cn1nc(C(F)F)c(C(=O)Nc2ccccc2CCC(C)(C)C)c1Cl [Example 14] | 99 | 93 | – | – | 100 | 100 | 100 | 98 | 100 | 90 | – | – | 100 | 100 | 98 | 4.01 | 4.1 | – | – |
| CC(CC(C)(C)C)c1ccccc1NC(=O)c1c(C(F)F)nn(C)c1F (stereo not drawn) [Example 21] | 100 | 100 | 85% | 95 | 100 | – | 95 | 98 | 100 | 85 | 4.04 | 95 | 100 | 100 | – | – | – | – | – |
| CC(C)C1C2CCC1c1c(NC(=O)c3c(C(F)F)nn(C)c3F)cccc12 (stereo not drawn) [Example 66] | 99 | 100 | 100% | 100 | 100 | 86 | 100 | 98 | 100 | 93 | 4.41 | 100 | 100 | 100 | – | – | – | 93 | – |
| Cn1nc(C(F)F)c(C(=O)Nc2ccc(F)cc2-c2ccc(Cl)c(Cl)c2)c1F [Example 116] | 100 | 100 | 97% and 90% | 100 | 100 | – | 100 | 85 | 100 | 90 | 3.89 | 98 | 100 | 97 | – | – | – | – | at least 90% |
| Cn1nc(C(F)F)c(C(=O)Nc2ccccc2-c2ccc(C(F)(F)F)c(F)c2)c1Cl [Example 148] | 100 | 100 | 80% | – | 100 | 86 | 100 | 98 | 100 | 95 | 3.77 | – | 100 | 100 | – | – | – | – | – |
